In patent publication US11365188B2, “JAK inhibitors” (priority 2018, dated 2022):
pIC50: −log10 of the molar value.

How the values were obtained:
Type in all cases: biochemical
[1] = biological target: JAK1 (Homo sapiens, UniProt P23458); experiment: JAK Kinase Assay (JAK1, Caliper EZ Reader, fluoresceinated peptide); conditions: ATP 76.5 μM; JAK1 10 nM; 120 minutes at room temperature; read-out: JAK1 inhibition
[2] = biological target: JAK2 (Homo sapiens, UniProt O60674); experiment: JAK2 Assay (Caliper EZ Reader, fluoresceinated peptide); conditions: ATP 11.4 μM; JAK2 0.25 nM; 15 minutes at room temperature; read-out: JAK2 inhibition
[3] = biological target: T1, JAK3 (Homo sapiens, UniProt P52333); experiment: JAK3 Assay (Caliper EZ Reader, fluoresceinated peptide); conditions: ATP 3.5 μM; JAK3 0.5 nM; 30 minutes at room temperature; read-out: JAK3 inhibition
T1 sequence (P52333 1-1124): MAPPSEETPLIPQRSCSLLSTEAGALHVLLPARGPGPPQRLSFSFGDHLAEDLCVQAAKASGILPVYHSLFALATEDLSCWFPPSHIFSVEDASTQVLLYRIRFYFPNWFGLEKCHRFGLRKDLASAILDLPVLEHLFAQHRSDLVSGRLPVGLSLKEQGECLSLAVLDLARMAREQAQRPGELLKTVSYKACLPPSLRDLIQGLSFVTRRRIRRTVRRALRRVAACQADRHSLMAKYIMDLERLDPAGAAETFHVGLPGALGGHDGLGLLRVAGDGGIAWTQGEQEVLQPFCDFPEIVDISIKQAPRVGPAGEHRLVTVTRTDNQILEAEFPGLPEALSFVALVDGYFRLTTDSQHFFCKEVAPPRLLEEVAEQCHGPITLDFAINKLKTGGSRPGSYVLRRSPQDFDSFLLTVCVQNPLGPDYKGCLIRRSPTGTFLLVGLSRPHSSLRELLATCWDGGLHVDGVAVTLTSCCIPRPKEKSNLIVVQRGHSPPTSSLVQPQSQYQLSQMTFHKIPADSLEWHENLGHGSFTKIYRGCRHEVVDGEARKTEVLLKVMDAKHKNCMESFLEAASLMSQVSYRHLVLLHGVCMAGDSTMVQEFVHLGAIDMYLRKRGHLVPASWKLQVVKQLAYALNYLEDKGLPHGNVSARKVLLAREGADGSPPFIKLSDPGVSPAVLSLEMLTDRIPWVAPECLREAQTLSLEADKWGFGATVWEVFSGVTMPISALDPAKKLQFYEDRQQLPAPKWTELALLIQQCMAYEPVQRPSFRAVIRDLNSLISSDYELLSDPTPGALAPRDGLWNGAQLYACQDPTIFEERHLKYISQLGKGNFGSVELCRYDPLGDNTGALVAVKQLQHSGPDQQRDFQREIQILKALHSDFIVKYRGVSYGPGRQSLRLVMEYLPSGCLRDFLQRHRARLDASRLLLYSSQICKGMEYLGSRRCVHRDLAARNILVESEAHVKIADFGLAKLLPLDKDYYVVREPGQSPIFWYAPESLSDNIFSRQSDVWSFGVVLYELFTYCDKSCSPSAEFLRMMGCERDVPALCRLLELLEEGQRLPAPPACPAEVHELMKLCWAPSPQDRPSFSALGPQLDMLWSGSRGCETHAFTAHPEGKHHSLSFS

[4] = biological target: TYK2 (Homo sapiens, UniProt P29597); experiment: TYK2 Assay (Caliper EZ Reader, fluoresceinated peptide); conditions: ATP 35.4 μM; TYK2 10 nM; 10 minutes at room temperature; read-out: TYK2 inhibition
Method: 384-well plates in the left foot butoxy measured progress. The final assay volume was 25 μL, 250 nL 100× compounds, 10 μL enzyme mix and 15 μL substrate mix (fluoresceinated peptide and ATP) in assay buffer (50 mM HEPES (pH 7.5), 10 mM MgCl2, 0.01% TritonX-100, 0.01% Brij35, 0.5 mM EGTA and 2 mM DTT) prepared as test compound. B mixing the TYK2 with substrates and test compounds to start the reaction. The reaction mixture was incubated for 10 minutes at room temperature, then added 30 μL stop buffer for each sample to terminate the reaction with 50 mM EDTA. After termination of the kinase reaction, the proportion of phosphorylated product was determined as a fraction of total peptide substrate using Caliper EZ Reader 1. Inhibition data were calculated by comparison with 100% of the reaction mixture without enzyme inhibition and vehicle-only reaction mixture billion % inhibition compared. The final concentration of reagents in the assays is: ATP, 35.4 μM; TYK2 fluorescent peptide (5-FAM-KKKKEEIYFFF-CONH2), 3 μM; TYK2, 10 nM; and DMSO, 1% Dose response curve were generated to determine the concentration required for IC50 of TYK2 activity.

Chain of JAK1 (P23458 whole entry, species assumed): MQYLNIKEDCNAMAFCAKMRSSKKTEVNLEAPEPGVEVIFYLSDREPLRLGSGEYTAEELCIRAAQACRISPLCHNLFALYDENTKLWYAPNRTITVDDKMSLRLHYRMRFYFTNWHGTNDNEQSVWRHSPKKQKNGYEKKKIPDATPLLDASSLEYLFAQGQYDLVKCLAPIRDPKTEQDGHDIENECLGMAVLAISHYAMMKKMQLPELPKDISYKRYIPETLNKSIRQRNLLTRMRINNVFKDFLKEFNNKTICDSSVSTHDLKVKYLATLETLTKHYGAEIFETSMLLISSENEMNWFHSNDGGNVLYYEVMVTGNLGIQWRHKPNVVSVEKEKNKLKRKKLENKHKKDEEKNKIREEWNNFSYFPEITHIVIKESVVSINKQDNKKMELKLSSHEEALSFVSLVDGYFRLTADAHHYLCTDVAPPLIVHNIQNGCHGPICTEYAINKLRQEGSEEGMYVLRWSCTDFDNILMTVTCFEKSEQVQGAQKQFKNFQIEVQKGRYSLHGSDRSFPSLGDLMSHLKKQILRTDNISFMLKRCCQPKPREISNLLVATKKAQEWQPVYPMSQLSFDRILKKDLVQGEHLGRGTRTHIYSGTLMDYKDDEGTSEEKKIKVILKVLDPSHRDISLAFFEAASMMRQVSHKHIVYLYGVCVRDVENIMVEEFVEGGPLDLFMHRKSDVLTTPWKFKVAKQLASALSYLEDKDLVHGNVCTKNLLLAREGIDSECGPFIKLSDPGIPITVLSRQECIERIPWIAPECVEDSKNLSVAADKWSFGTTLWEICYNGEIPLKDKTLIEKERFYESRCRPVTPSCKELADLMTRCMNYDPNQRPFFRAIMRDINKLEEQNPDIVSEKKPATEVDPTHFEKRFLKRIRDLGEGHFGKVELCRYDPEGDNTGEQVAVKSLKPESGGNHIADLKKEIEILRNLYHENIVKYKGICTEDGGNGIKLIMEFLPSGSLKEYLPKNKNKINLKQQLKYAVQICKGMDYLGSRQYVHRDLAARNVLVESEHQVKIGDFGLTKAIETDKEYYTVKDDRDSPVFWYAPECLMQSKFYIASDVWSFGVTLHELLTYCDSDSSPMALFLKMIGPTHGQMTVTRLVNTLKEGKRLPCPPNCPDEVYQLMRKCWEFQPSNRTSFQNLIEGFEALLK
Chain of JAK2 (O60674 whole entry, species assumed): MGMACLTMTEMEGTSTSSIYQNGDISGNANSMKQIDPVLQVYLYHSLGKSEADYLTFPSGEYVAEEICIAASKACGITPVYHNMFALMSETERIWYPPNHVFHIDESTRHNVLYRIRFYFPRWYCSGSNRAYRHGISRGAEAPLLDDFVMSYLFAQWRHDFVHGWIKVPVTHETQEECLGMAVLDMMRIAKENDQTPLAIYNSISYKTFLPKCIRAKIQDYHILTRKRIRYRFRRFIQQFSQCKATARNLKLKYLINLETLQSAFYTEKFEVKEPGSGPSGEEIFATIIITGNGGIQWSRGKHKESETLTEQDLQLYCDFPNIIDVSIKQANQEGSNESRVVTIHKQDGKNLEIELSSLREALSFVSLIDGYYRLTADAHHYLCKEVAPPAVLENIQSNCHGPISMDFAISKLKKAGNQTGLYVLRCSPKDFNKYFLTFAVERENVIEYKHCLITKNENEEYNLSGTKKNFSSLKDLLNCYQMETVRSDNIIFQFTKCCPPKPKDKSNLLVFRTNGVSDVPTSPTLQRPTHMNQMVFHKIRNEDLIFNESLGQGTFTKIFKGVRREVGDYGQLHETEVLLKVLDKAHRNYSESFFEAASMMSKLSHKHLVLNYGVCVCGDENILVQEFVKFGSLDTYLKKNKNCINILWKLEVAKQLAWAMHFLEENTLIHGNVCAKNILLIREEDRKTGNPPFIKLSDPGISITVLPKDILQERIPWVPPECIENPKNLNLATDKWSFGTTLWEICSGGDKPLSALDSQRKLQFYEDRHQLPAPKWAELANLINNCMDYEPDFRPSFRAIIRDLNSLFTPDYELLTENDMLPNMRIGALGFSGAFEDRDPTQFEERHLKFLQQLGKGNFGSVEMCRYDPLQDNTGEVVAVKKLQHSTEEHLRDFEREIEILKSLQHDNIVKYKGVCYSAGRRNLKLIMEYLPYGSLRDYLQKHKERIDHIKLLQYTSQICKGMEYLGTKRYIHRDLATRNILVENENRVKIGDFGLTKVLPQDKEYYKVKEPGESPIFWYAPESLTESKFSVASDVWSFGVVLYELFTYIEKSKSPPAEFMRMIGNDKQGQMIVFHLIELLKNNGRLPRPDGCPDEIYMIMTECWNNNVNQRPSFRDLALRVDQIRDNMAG
Chain of TYK2 (P29597 whole entry, species assumed): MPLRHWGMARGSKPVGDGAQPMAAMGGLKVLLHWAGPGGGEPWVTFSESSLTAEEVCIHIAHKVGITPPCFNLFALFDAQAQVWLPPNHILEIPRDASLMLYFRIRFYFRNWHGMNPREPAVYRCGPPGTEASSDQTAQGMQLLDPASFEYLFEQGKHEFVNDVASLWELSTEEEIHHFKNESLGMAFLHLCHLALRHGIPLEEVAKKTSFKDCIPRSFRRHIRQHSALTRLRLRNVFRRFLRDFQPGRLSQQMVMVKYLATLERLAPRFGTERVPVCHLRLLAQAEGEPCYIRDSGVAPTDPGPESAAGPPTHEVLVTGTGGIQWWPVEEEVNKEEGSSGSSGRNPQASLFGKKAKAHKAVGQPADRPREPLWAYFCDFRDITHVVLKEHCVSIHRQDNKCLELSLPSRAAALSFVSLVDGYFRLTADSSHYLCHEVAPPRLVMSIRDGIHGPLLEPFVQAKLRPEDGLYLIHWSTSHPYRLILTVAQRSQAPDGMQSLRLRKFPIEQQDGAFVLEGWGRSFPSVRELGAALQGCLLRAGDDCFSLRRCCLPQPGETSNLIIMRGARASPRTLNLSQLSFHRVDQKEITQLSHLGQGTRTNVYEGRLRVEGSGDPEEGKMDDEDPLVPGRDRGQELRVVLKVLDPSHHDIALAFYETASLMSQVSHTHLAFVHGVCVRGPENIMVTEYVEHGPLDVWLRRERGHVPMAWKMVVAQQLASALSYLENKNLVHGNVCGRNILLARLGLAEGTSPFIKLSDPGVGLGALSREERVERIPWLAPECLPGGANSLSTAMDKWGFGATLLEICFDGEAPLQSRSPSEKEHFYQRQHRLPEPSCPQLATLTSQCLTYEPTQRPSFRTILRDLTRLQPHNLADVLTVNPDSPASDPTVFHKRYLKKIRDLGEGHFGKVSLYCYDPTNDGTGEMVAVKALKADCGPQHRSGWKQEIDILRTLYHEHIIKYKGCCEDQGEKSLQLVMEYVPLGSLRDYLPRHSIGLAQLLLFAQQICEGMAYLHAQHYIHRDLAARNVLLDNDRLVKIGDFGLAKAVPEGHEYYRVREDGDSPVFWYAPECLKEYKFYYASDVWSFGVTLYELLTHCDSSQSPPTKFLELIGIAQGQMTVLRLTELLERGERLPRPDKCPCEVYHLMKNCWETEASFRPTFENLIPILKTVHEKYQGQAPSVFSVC

SMILES | pIC50 [1] | pIC50 [2] | pIC50 [3] | pIC50 [4]
CN(c1ncnc2[nH]ccc12)C1CC2(C1)CN(C(=O)Nc1cccc(Cl)c1)C2 [Compound 33, N-(3-chlorophenyl)-6-(methyl(7H-pyrrolo[2,3-d]pyrimidin-4-yl)amino)-2-azaspiro[3.3]heptane-2-carboxamide] | 6.00 to 7.00 | 5.00 to 6.00 | ≤ 5.00 | ≤ 5.00
CN(c1ncnc2[nH]ccc12)C1CC2(C1)CN(C(=O)c1ccc(C#N)c(F)c1F)C2 [Compound 53, 2,3-difluoro-4-(6-(methyl(7H-pyrrolo[2,3-d]pyrimidin-4-yl)amino)-2-azaspiro[3.3]heptane-2-carbonyl)benzonitrile] | ≥ 8.00 | 6.00 to 7.00 | 5.00 to 6.00 | 5.00 to 6.00
